Results reported in the supplement of paper PMC10290057.

What was measured:
[1] = system: HCT116; experiment: AC50 cell viability (CellTiter-Glo); higher = less potent; conditions: 48 h
[2] = system: HCT116; experiment: efficacy (fitted maximal change in viability relative to DMSO control); higher = less cytotoxic (negative = loss of viability); conditions: 48 h
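Wherever AC50 cell viability (CellTiter-Glo) is given: HCT116 colorectal carcinoma cells screened at five concentrations per compound, luminescent viability scaled between DMSO wells and empty wells on each plate, curves fitted per compound.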
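Wherever efficacy (fitted maximal change in viability relative to DMSO control) is given: Luminescence-based viability readout, five doses per compound, normalized against on-plate DMSO and empty-well controls, followed by dose-response curve fitting for every drug.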

SMILES	AC50 cell viability [1] [µM]	efficacy [2] [%]
c1ccc(CNc2nc(NCc3ccccc3)c3ccccc3n2)cc1	8.33	-98.7
C/C1=C/C(=C(/CNC(=O)C2=CC(=CC3=C2C=N[N]3C4CCCC4)C5=CC=C(CN6CCOCC6)C=C5)C(=O)N1)C	20.9	-108
c1ccc(CNc2nc(N3CCOc4ccccc43)nc3c2CCCC3)cc1	20.9	-42.4
CC(C)(C)Cn1c(N)nc2ccc(-c3[nH]c(C(C)(C)C)nc3-c3ccc(F)cc3)nc21	23.5	-83.7
CC(=O)Nc1ccc([C@H](C)C(=O)Nc2ncc(C(C)C)s2)cc1	2.09	-59.3
Cc1[nH]c(/C=C2\C(=O)Nc3ccc(F)cc32)c(C)c1C(=O)NC[C@H](O)CN1CCOCC1	2.63	-73
Cc1cc(-c2cnn3c(NC[C@H]4C[C@@](C)(O)C4)cc(Oc4cccnc4)nc23)ccc1C(=O)NC1CC1	0.934	-56.6
Cc1cc(N2CCOCC2)ccc1Nc1nc(NC2CCCCC2)c2nc[nH]c2n1	6.61	-59.2
Cc1ccc(C(C)(O)c2nc3ccccc3s2)c(C)c1 (configuration not stated)	16.6	-43.4
Cc1ccc([S+](=O)([O-])Cc2nc(-c3ccc(C(=O)NCc4cccnc4)cc3)oc2C)cc1	0.0372	-90.9
Cc1ccc([S+](=O)([O-])Nc2cc(-c3ccc(C#N)s3)ccc2C)cc1	0.0372	-59.9
Cc1cnc(Nc2ccc(F)cc2Cl)nc1-c1c[nH]c(C(=O)N[C@H](CO)c2cccc(Cl)c2)c1	4.17	-115
Cc1cccc(-c2[nH]c(C(C)(C)C)nc2-c2ccc3c(c2)OCO3)n1	2.95	-86.6
Cc1cccc(-c2[nH]c(C(C)(C)C)nc2-c2ccc3nccnc3c2)n1	20.9	-85.8
CCc1cncnc1N1CCN(Cc2nc3cc(C(F)(F)F)ccc3[nH]2)CC1	14.8	-42.6
CCc1cnn2c(NCc3ccc[n+]([O-])c3)cc(N3CCCC[C@H]3CCO)nc12	0.0148	-67.1
CCN(CC)CCCC(C)Nc1nc(C)cc(Nc2ccc3nc(C)cc(N)c3c2)n1 (configuration not stated)	20.9	-54.4
CCN(CC)CCCCNc1ncc2cc(-c3cc(OC)cc(OC)c3)c(NC(=O)NC(C)(C)C)nc2n1	18.6	-117
CCN1CCN(CC1)CC(=O)NC2=CC=C(C3=C2C4=C(S3)C=CC=C4)C5=C6O\C(=C/C(=O)C6=CC=C5)N7CCOCC7	1.29	-81.5
CCN1\C(=C(C(=O)NC)/C(=O)C2=C1N=C(C=C2)C#CC(C)(O)COC)N (configuration not stated)	18.6	-31.1
CCNC(=O)C#Cc1ccc2c(c1)NC(=O)/C2=C(\Nc1ccc(CN(C)C)cc1)c1ccccc1	0.257	-104
CCNC(=O)Nc1ccc(Oc2ncnc(N)c2/C=N/OC)cc1Cl	23.5	-70.7

SMILES	AC50 cell viability [1] [µM]	efficacy [2] [%]
CCOC(=O)N1CCN(/[N+]([O-])=N/Oc2ccc([N+](=O)[O-])cc2[N+](=O)[O-])CC1	18.6	-71.8
CCn1c(-c2nonc2N)nc2cncc(CNC3CCNCC3)c21	10.5	-43.9
CCn1c(-c2nonc2N)nc2cnc(Oc3cccc(NC(=O)c4ccc(OCCN5CCOCC5)cc4)c3)cc21	10.5	-79.2
CN(c1ncccc1CNc1nc(Nc2ccc3c(c2)CC(=O)N3)ncc1C(F)(F)F)[S+](C)(=O)[O-]	2.63	-62.3
Cn1cc(-c2cnn3c(N)c(Br)c([C@@H]4CCCNC4)nc23)cn1	13.2	-108
CN1CCC(CC1)COC2=CN=C(N=C2)C3=CC(=CC=C3)CN4/N=C(\C=C/C4=O)C5=CC(=CC=C5)C#N	7.42	-30.6
COc1ccc(-c2ccc3c(N4CCOCC4)nc(N4C[C@@H](C)O[C@@H](C)C4)nc3n2)cc1CO	1.66	-45.6
COc1ncc(-c2ccc3nccc(-c4ccnnc4)c3c2)cc1N[S+](=O)([O-])c1ccc(F)cc1F	0.105	-74.6
COc1cccc2c(NCc3ccccc3)nc(-n3c(N)nc4ccccc43)nc12	5.9	-93.4
COc1cc(OC)c(/C=C/[S+](=O)([O-])Cc2ccc(OC)c(NCC(=O)[O-])c2)c(OC)c1	0.0661	-58.9
COc1cc([S+](C)(=O)[O-])ccc1Nc1nc2ccc(-c3ccc(NC(=O)[C@H](C)c4ccc(F)cc4)cc3)cn2n1	0.132	-30.6
COc1cc2ncn(-c3cc(OCc4ccccc4C(F)(F)F)c(C(N)=O)s3)c2cc1OC	0.934	-78.4
COc1cc2ncnc(Nc3cccc(Br)c3)c2cc1OC	20.9	-53
COc1ccc(CNC(=O)Nc2ncc([N+](=O)[O-])s2)cc1	20.9	-96.6
COc1ccc(N(C(=O)Oc2c(C)cccc2C)c2ccnc(Nc3ccc(N4CCN(C)CC4)cc3)n2)c(OC)c1	0.661	-41
COc1ccc2c(c1)[C@]1(C[C@H]1c1ccc3c(/C=C/c4ccc(CN5C[C@@H](C)O[C@@H](C)C5)cc4)n[nH]c3c1)C(=O)N2	13.2	-83.6
COC1=CC=CC(=C1N)\C2=C\C(=O)C3=C(O2)C=CC=C3	16.6	-52.9
CO[C@@H](C)Cn1c(=O)n(C)c2cnc3ccc(-c4cncc(C(C)(C)O)c4)cc3c21	1.05	-82.3
C[C@@H](N)c1ccc(C(=O)Nc2ccnc3[nH]ccc23)cc1	4.68	-62.4
C[C@@H]1CCNC(=O)c2cc3ccc(C(=O)Nc4nc5ccccc5n4CCCN(C)C)cc3n21	11.8	-92.3
Cc1cccc(CC(=O)N2CCc3c2ccc(-c2cn(C)c4ncnc(N)c24)c3F)n1	0.661	-43.2
Cc1cc(C(=O)Nc2cc(Nc3ccc4c(/C=C/c5ccccn5)[nH]nc4c3)ccc2F)n(C)n1	10.5	-99.1

SMILES	AC50 cell viability [1] [µM]	efficacy [2] [%]
Cn1ncc(Cl)c1-c1cc(C(=O)N[C@H](CN)Cc2ccc(F)c(F)c2)sc1Cl	16.6	-116
Cn1ncc2cc(-c3cnc(N)c(Cl)c3N3CCC4(CCNC4=O)CC3)ccc21	16.6	-46.1
Cn1nccc1Nc1nccc(-c2cc3c(s2)C(C)(C)N(CCN2CCOCC2)C3=O)n1	0.525	-57.4
C[S+](=O)([O-])c1cccc(CNc2nc(Nc3ccc4c(c3)CCC(=O)N4)ncc2C(F)(F)F)c1	5.9	-71.5
Clc1cc(Cl)cc(CNc2ncncc2-c2ccc3c(c2)OCO3)c1	13.2	-78.4
O=C(NCc1ccncc1)C12C[C@H]3C[C@@H](C1)CC(c1ccc(Cl)cc1)(C3)C2	20.9	-52.9
N#Cc1ccc(Cn2cncc2CN2CCN(c3cccc(Cl)c3)C(=O)C2)cc1	0.332	-46
O=C(c1ccc(F)cc1)N1CCC[C@H](c2nc(-c3ccc(F)cc3)no2)C1	14.8	-35.7
NC(=O)c1ccc2nc(-c3ccc(C4(N)CCC4)cc3)c(-c3ccccc3)n2n1	20.9	-103
C=CC(=O)N1CCC[C@@H](n2nc(-c3ccc(Oc4ccccc4)cc3)c3c(N)ncnc32)C1	16.6	-90.8
Nc1nc(NCCNc2ncc(-n3ccnc3)c(-c3ccc(Cl)cc3Cl)n2)ccc1[N+](=O)[O-]	2.09	-32
N#Cc1ccc(COC[C@H]2O[C@@H](n3c(NCc4ccc(Cl)c(Cl)c4)nc4c(N)ncnc43)[C@H](O)[C@@H]2O)cc1	16.6	-99.6
NCC(=O)Nc1ccc(-n2nc(C(F)(F)F)cc2-c2ccc3c(ccc4ccccc43)c2)cc1	13.2	-124
NC(=O)c1cnc(N[C@@H]2CCCC[C@@H]2N)nc1Nc1cccc(-n2nccn2)c1	10.5	-90.7
O=C(Nc1ccc2[nH]nc(-c3ccncc3)c2c1)[C@@H]1CCN(CC(=O)N2CCN(c3ccc(-c4ncccn4)cc3)CC2)C1	0.295	-64.3
OC1=C(Cl)C=C(N\C2=C(\C(=O)NC2=O)C3=C(C=CC=C3)[N+]([O-])=O)C=C1	20.9	-54.8
Oc1ccc(C2CCN(c3ccnc4ccccc34)CC2)cc1O	11.8	-49
OC1CCC(Nc2ncc3nc(Nc4c(F)cc(F)cc4F)n([C@@H]4CCOC4)c3n2)CC1 (some centres not stated)	18.6	-43.3
O=C(NOCC(O)CO)c1cc(Br)c(F)c(F)c1Nc1ccc(I)cc1F (configuration not stated)	0.934	-69.5
OCCCNc1cc(-c2ccnc(Nc3cccc(Cl)c3)n2)ccn1	0.059	-58.5
O=[N+]([O-])c1ccc(Nc2ccccc2-c2ccccc2)c2nonc12	16.6	-90.7
O=C1c2ccccc2-c2n[nH]c3cccc1c23	13.2	-63.8
